One molecule from US20150352134A1, “COMPOSITION FOR TOPICAL SKIN APPLICATION CONTAINING GINSENOSIDE F2 DERIVED FROM HYDROPONIC GINSENG” (AMOREPACIFIC CORPORATION, priority 2012, published 2015) can be followed below.

One assay has as its target T1, 5α-reductase (Homo sapiens, UniProt P31213).
T1 construct: 3×FLAG; expressed in transfected cells; host or cells: HEK293
T1 sequence (P31213 1-254): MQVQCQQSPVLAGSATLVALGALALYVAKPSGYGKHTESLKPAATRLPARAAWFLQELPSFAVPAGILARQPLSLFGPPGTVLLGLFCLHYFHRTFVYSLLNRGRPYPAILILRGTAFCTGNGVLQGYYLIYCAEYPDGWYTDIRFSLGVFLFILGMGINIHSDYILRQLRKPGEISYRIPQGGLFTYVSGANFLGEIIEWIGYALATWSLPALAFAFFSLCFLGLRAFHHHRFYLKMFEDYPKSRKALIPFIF
Description: 5α-reductase activity inhibition, conversion of [14C]testosterone to DHT in HEK293-5α R2 cells. Particulars: 2 hours. Type of assay: cell-based. How it is done: In order to evaluate the inhibitory effect on the activity of 5α-reductase, the conversion rate from [^14C]testosterone to [^14C]dihydrotestosterone (DHT) in HEK293-5α R2 cells is measured. P3×FLAG-CMV-5α R2 is transduced into HEK293 cells, which are cultured in a 24-well plate at a rate of 2.5×10^5 cells per well (Park et al., 2003, JDS. Vol. 31, pp. 191-98). The next day, the used culture medium is replaced with a new culture medium containing an enzyme substrate and an inhibitor. The substrate of the culture medium is 0.05 μCi [^14C]testosterone (Amersham Pharmacia Biotech, UK).
To evaluate the degree of 5α-reductase activity inhibition, the cells are treated with ginsenoside F2 and then cultured in a 5% CO2 incubator at 37° C. for 2 hours. In this regard, the negative control is the group not treated with ginsenoside F2, while the positive control is the group treated with finasteride. Subsequently, the culture medium is collected to extract steroids with 800 μl of ethylacetate, and the supernatant organic solvent phase is isolated and dried. The residue is dissolved in 50 μl of ethylacetate and developed on silica plastic sheet kieselgel 60 F254 using an ethylacetate-hexane (1:1) solvent.
The plastic sheet is dried out in the air and measured in regards to the abundance of isotope using a bath system. The dry plastic sheet together with an X-ray film is put in a bath cassette. After one week, the abundance of isotope of testosterone and dihydrotestosterone remaining on the film is measured to calculate the conversion rate and the inhibition rate according to the following mathematical formulas 5 and 6, respectively.

A further assay addresses T2, PAR-2 (Homo sapiens, UniProt P55085).
T2 construct: host or cells: HaCaT keratinocytes
T2 sequence (P55085 26-397): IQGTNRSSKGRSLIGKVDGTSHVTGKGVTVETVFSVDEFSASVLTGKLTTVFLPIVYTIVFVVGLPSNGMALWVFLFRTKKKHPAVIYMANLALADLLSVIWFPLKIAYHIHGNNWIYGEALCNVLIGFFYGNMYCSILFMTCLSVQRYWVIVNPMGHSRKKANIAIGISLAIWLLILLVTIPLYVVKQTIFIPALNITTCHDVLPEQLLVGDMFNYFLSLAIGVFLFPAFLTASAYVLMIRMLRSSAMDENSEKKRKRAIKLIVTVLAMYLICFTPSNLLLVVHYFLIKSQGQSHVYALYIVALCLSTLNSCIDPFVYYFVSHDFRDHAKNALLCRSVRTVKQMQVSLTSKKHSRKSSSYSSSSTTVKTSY
Description: Itching relief: inflow of Ca2+ into HaCaT keratinocytes after trypsin or PAR-2 activated peptide. Type of assay: cell-based. How it is done: One day before the testing, keratinocytes (HaCaT purchased from ATCC) are injected into a 96-well plate at a rate of 4×10^4 cells/well and cultured in an incubator under conditions of 5% CO2 and 37° C. for 24 hours. After 24 hours, the culture plate is washed with HBSS (Hank's Balanced Salt Solution) buffer twice, and a reaction buffer (2 μM Fluo-4-AM, 20% pluronic acid, 2.5 mM probenecid) is added to the cells. The culture plate is kept in an incubator under conditions of 5% CO2 and 37° C. for 30 minutes and allowed to react at the room temperature for 30 minutes. Then, the culture plate is washed with HBSS buffer twice, and the cells are treated with ginsenoside F2 at a concentration (%) as given in Table 25.
After completion of the reaction for 10 minutes, the cells are treated with 2 U/ml trypsin or 5 μM PAR-2 activated peptide (SLIGKV), and then the change of Ca^2+ concentration in the cells for 80 seconds is measured. The measurement method uses FlexStation3® (Molecular Device, U.S.A.). The difference between minimum and maximum flex values for 80 seconds after treatment with 2 U/ml trypsin or 5 μM PAR-2 activated peptide (SLIGKV) in combination with ginsenoside F2 is compared with the difference between minimum and maximum flex values for 80 seconds after treatment with 2 U/ml trypsin or 5 μM PAR-2 activated peptide (SLIGKV) alone.

In another assay the test system is Aspergillus niger. Description: Antibacterial effect, MIC. Type of assay: cell-based. The conditions noted are these: 48 hours, 25° C. How it is done:
(§1) The antibacterial testing is carried out in order to evaluate the antibacterial effect of ginsenoside F2. The detailed testing method is as follows. Staphylococcus aureus, Escherichia coli, and pseudomonas aeruginosa strains are cultured with a tryptic soy broth, and candida albicans and aspergillus niger strains are cultured with sabouraud dextrose broth. The test bacterial liquid is the 1/100 (1/10 for candida albicans strain) diluted solution of the culture medium diluted with each medium. For aspergillus niger, the test bacterial liquid is the spore suspension prepared to 2×10^8 cfu/ml. 0.15 ml of the test bacterial liquid is added to 15 ml of each culture medium to prepare a well-blended diluted solution. 16 μl of the sample is put into each well on the first row of a 96-well plate, and 184 μl of the diluted solution is added to each well on the first row. Then, 100 μl of the diluted solution is put into each of the other wells. The mixed solution of the first row is sufficiently stirred, and 100 μl of the mixed solution is added to each well on the second row of the 96-well plate and stirred sufficiently. 100 μl of the mixed solution on the second row is taken and added to each well on the third row to achieve two-fold serial dilution. Straphylococcus aureus, Escherichia coli, and Pseudomonas aeruginosa strains are cultured in a thermostat container at 32°, and Candida albicans and Aspergillus niger strains are cultured in a thermostat container at 25° C. 48 hours later, the cell proliferation is determined by the turbidity index and microscopic observation to determine the minimum inhibitory concentration (MIC).

For the next assay, the system named is Candida albicans. As to the kind of experiment: Antibacterial effect, MIC. Type of assay: cell-based. Particulars: 48 hours, 25° C. How it is done:
as §1

A further assay relates to Escherichia coli. As to the kind of experiment: Antibacterial effect, MIC. Type of assay: cell-based. Particulars: 48 hours, 32°. How it is done: as §1
In a further assay the test system is Pseudomonas aeruginosa. As to the kind of experiment: Antibacterial effect, MIC. Type of assay: cell-based. The conditions noted are these: 48 hours, 32°. How it is done:
as §1

For a further assay, the system named is Straphylococcus aureus. As to the kind of experiment: Antibacterial effect, MIC. Type of assay: cell-based, Staphylococcus aureus. Particulars: 48 hours, 32°. How it is done: as §1, with “100 μl of the mixed solution on the second row is taken and added to each well on the third row to achieve two-fold serial dilution. Straphylococcus aureus, Escherichia coli, and Pseudomonas aeruginosa strains are cultured in a thermostat container at 32°, and Candida albicans and Aspergillus niger strains are cultured in a thermostat container at 25° C.” left out

In general, inhibition refers to the percentage by which the read-out fell short of the control. In the case of `CC(C)=CCC[C@](C)(O[C@@H]1O[C@H](CO)[C@@H](O)[C@H](O)[C@H]1O)[C@H]1CC[C@]2(C)[C@@H]1[C@H](O)C[C@@H]1[C@@]3(C)CC[C@H](O[C@@H]4O[C@H](CO)[C@@H](O)[C@H](O)[C@H]4O)C(C)(C)[C@@H]3CC[C@]12C` [Ginsenoside F2, ginsenoside F2], the “Inhibition rate (%)” value on 5α-reductase (5α-reductase activity) is 59.7%. Further, on 5α-reductase (testosterone to dihydrotestosterone), the “Conversion rate (%)” value was 15.4%. For the same molecule, the results for the “Inhibition rate (%) on inflow of Ca^2+ into cells, Trypsin (2 U/ml)” value on PAR-2 (0.05% ginsenoside F2), at PAR-2 (0.1% ginsenoside F2) and on PAR-2 (1.0% ginsenoside F2) were 23%, 30% and 41%, respectively. Further, at PAR-2 (HaCaT, 0.05% ginsenoside F2, read-out: Inhibition rate (%) on inflow of Ca^2+ into cells, PAR-2 activated peptide (5 μM)), the inhibition at 0.05 % came to 26%. At PAR-2 (HaCaT, 0.1% ginsenoside F2, read-out: Inhibition rate (%) on inflow of Ca^2+ into cells, PAR-2 activated peptide (5 μM)), the inhibition at 0.1 % is 35%. For the same molecule, at PAR-2 (HaCaT, 0.5% ginsenoside F2, read-out: Inhibition rate (%) on inflow of Ca^2+ into cells, PAR-2 activated peptide (5 μM)), the inhibition at 0.5 % turned out to be 40%. Further, the inhibition at 1 % on PAR-2 (HaCaT, 1.0% ginsenoside F2, read-out: Inhibition rate (%) on inflow of Ca^2+ into cells, PAR-2 activated peptide (5 μM)) was 47%. The “MIC (%) Aspergillus niger” value against Aspergillus niger is listed as above 2%. The “MIC (%) Candida albicans” value with Candida albicans is listed as above 4%. Moreover, the “MIC (%) Escherichia coli” value against Escherichia coli was determined as 0.13%. Also, in the assay with Pseudomonas aeruginosa, the “MIC (%) Pseudomonas aeruginosa” value came out at 0.09%. Besides, the “MIC (%) Straphylococcus aureus” value in the assay on Straphylococcus aureus was determined as 0.07%.
